Measurements as given in ChEMBL document CHEMBL3286098, “α-Methylated simplified resiniferatoxin (sRTX) thiourea analogues as potent and stereospecific TRPV1 antagonists” (Bioorg Med Chem Lett, 2014).
Active and inactive are the calls of the source. The rule behind the calls is not given here.

Tests used:
[1] = target: Transient receptor potential cation channel subfamily V member 1 (Rattus norvegicus) (UniProt O35433); assay: Agonist activity at rat TRPV1 heterologously expressed in CHO cells assessed as […] [45Ca2+] uptake by liquid scintillation counting; assay type: cell-based
Transient receptor potential cation channel subfamily V member 1 (Rattus norvegicus), sequence (O35433 whole entry): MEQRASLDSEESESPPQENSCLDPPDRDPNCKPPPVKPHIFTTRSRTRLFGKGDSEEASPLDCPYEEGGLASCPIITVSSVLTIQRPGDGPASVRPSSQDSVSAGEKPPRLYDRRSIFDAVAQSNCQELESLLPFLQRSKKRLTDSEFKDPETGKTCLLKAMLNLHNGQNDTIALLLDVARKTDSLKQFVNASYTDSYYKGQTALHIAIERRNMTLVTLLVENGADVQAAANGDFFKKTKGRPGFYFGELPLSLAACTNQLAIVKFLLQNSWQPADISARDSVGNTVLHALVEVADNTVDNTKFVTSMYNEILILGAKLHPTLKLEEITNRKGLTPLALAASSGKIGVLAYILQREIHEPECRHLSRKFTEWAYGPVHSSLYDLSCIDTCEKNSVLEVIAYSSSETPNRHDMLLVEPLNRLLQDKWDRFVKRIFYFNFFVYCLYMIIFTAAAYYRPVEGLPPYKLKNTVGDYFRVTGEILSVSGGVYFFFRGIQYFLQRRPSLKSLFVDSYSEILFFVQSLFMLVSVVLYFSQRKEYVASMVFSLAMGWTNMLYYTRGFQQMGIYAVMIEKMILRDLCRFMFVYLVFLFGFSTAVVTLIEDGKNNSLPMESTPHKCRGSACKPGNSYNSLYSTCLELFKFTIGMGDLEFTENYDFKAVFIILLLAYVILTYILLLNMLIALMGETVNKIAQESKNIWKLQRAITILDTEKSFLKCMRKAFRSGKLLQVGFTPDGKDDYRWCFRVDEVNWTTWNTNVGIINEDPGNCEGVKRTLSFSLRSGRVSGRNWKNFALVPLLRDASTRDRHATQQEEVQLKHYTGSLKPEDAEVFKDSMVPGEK

[2] = target: T1, Transient receptor potential cation channel subfamily V member 1 (Rattus norvegicus, UniProt O35433); assay: Displacement of [3H]RTX from rat TRPV1 after 60 mins by competitive binding assay
T1 sequence (O35433 whole entry): as above

[3] = target: T1, Transient receptor potential cation channel subfamily V member 1; assay: Antagonist activity at rat TRPV1 heterologously expressed in CHO cells assessed as inhibition of capsaicin-induced [45Ca2+] uptake by liquid scintillation counting; assay type: cell-based

Row | Structure (SMILES) | Activity [1] | Ki [2] [nM] | Ki [3] [nM]
1 | C[C@H](NC(=S)NC[C@@H](COC(=O)C(C)(C)C)Cc1ccccc1)c1ccc(NS(C)(=O)=O)cc1 | inactive |  | 
2 | C[C@@H](NC(=S)NC[C@H](COC(=O)C(C)(C)C)Cc1ccccc1)c1ccc(NS(C)(=O)=O)cc1 | inactive |  | 
3 | C[C@@H](NC(=S)NCC(COC(=O)C(C)(C)C)Cc1ccc(C(C)(C)C)cc1)c1ccc(NS(C)(=O)=O)cc1 (stereo not given in full) | inactive |  | 
4 | Cc1ccc(CC(CNC(=S)N[C@H](C)c2ccc(NS(C)(=O)=O)cc2)COC(=O)C(C)(C)C)cc1C (stereo not given in full) | inactive |  | 
5 | C[C@@H](NC(=S)NC[C@@H](COC(=O)C(C)(C)C)Cc1ccc(C(C)(C)C)cc1)c1ccc(NS(C)(=O)=O)cc1 | inactive | 6.75 | 
6 | Cc1ccc(CC(CNC(=S)NC(C)c2ccc(NS(C)(=O)=O)cc2)COC(=O)C(C)(C)C)cc1C (racemic) | inactive |  | 
7 | C[C@@H](NC(=S)NC[C@H](COC(=O)C(C)(C)C)Cc1ccc(C(C)(C)C)cc1)c1ccc(NS(C)(=O)=O)cc1 | inactive | 17.9 | 
8 | C[C@H](NC(=S)N[C@@H](COC(=O)C(C)(C)C)Cc1ccccc1)c1ccc(NS(C)(=O)=O)cc1 | inactive |  | 
9 | CC(C)(C)C(=O)OC[C@@H](CNC(=S)NCc1ccc(NS(C)(=O)=O)cc1)Cc1ccccc1 | inactive | 252 | 64.3
10 | Cc1ccc(C[C@H](CNC(=S)N[C@H](C)c2ccc(NS(C)(=O)=O)cc2)COC(=O)C(C)(C)C)cc1C | inactive |  | 
11 | Cc1ccc(C[C@@H](CNC(=S)N[C@H](C)c2ccc(NS(C)(=O)=O)cc2)COC(=O)C(C)(C)C)cc1C | inactive | 2.12 | 13.2
12 | C[C@H](NC(=S)N[C@H](COC(=O)C(C)(C)C)Cc1ccccc1)c1ccc(NS(C)(=O)=O)cc1 | inactive |  | 
13 | C[C@@H](NC(=S)NC[C@@H](COC(=O)C(C)(C)C)Cc1ccccc1)c1ccc(NS(C)(=O)=O)cc1 | inactive |  | 
14 | CC(NC(=S)NCC(COC(=O)C(C)(C)C)Cc1ccc(C(C)(C)C)cc1)c1ccc(NS(C)(=O)=O)cc1 (racemic) | inactive |  | 
15 | Cc1ccc(C[C@H](CNC(=S)NCc2ccc(NS(C)(=O)=O)cc2)COC(=O)C(C)(C)C)cc1C |  | 29.3 | 67
16 | CC(C)(C)C(=O)OC[C@H](CNC(=S)NCc1ccc(NS(C)(=O)=O)cc1)Cc1ccccc1 | inactive | 236 | 80.6
17 | C[C@H](NC(=S)NC[C@H](COC(=O)C(C)(C)C)Cc1ccccc1)c1ccc(NS(C)(=O)=O)cc1 | inactive |  | 
18 | C[C@@H](NC(=S)N[C@H](COC(=O)C(C)(C)C)Cc1ccccc1)c1ccc(NS(C)(=O)=O)cc1 | inactive |  | 
19 | CC(C)(C)C(=O)OC[C@@H](CNC(=S)NCc1ccc(NS(C)(=O)=O)cc1)Cc1ccc(C(C)(C)C)cc1 |  | 64 | 86
20 | C[C@@H](NC(=S)N[C@@H](COC(=O)C(C)(C)C)Cc1ccccc1)c1ccc(NS(C)(=O)=O)cc1 | inactive |  | 
